Values quoted from earlier work in US20080044496A1, “ARTHRITIS PHYTO-NUTRACEUTICAL SYNERGISTIC COMPOSITION” (priority 2006, published 2008).

Test system: human rheumatoid arthritis synoviocytes

C[C@@H]1CC[C@@]2(OC1)O[C@H]1C[C@H]3[C@@H]4CC=C5C[C@@H](O)CC[C@]5(C)[C@H]4CC[C@]3(C)[C@H]1[C@@H]2C [diosgenine]
apoptosis: induces apoptosis
